Drawing on PubChem BioAssay (NCI), this text covers GI50 and TGI for 1 molecule.

Structures are written as SMILES.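 Method: 48-hour compound exposure of cells in 96-well plates, five concentrations, linear interpolation of endpoints. GI50 = concentration required for 50% inhibition of growth. TGI marks complete inhibition of growth.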 Where only a bound is given, the exact number is not on record here.

Some test systems named below: A549 NSCLC; ACHN renal; HCC-2998 colon; HCT-15 colon; HOP-62 NSCLC; NCI-H23 lung; SR leukemia; SW-620 colon; TK-10 renal; UACC-62 melanoma.
Common to all, as to assay: NCI-60 cell line screen, 48 h

Regarding `COC(=O)COc1ccc(/C=C2\N=C(c3ccccc3)N(c3cc(C(F)(F)F)ccc3Cl)C2=O)cc1`, the GI50 in the test on A549 NSCLC is more than 100 µM; in the test with ACHN renal, more than 100 µM; in the test with HCC-2998 colon it was 64 µM; in the test with HCT-15 colon, 94.6 µM; with HOP-62 NSCLC, 64.9 µM; in the test with NCI-H23 lung it was more than 100 µM. The GI50 was 19.3 µM in the test with SR leukemia, 62.1 µM in the test with SW-620 colon, more than 100 µM in the test on TK-10 renal and more than 100 µM with UACC-62 melanoma. Moreover, the TGI in the test with A549 NSCLC, in the test with ACHN renal, in the test on HCC-2998 colon, in the test on HCT-15 colon, with HOP-62 NSCLC and in the test on NCI-H23 lung was more than 100 µM throughout. The TGI in the test with SR leukemia was 54.9 µM; in the test with SW-620 colon, more than 100 µM; in the test with TK-10 renal it was more than 100 µM; with UACC-62 melanoma, more than 100 µM.
